According to patent US10315996B2, “ROR gamma (RORγ) modulators” (LEAD PHARMA HOLDING B.V., priority 2015, dated 2019):

Biological target: T1, RORγ (Homo sapiens, UniProt P51449)
T1 construct: expressed in transfected cells; host or cells: 293FT cells (Invitrogen), expression vector pFN26A (Promega)
T1 sequence (P51449 269-508 limits assumed): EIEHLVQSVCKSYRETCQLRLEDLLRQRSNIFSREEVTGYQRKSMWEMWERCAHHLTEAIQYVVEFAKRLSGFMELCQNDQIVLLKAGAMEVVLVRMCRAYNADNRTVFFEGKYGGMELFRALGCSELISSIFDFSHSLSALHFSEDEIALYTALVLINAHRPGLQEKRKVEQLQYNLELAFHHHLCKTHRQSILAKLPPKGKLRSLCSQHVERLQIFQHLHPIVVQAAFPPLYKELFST
Experiment: RORγ GAL4 reporter gene assay
Format: cell-based
Conditions: inhibition of RORγ activity, GAL4-RORγ-LBD luciferase reporter in 293FT cells, overnight incubation; read-out: mean pIC50 (converted)
Outline: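 293FT cells were transiently co-transfected with GAL4-DBD–RORγ-LBD (or GAL4-VP16 control) and a 9×UAS luc2P reporter, then plated at 60,000 cells/well. Compound was added at final 0.2% DMSO for 16-24 h at 37 °C, and inhibition was measured by firefly luciferase luminescence.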

Compound | IC50
CCN(C(=O)c1ccc(NC(=O)Cc2ccc(S(=O)(=O)CC3CC3)cc2)cc1)c1cc(C)on1 [Example 89, 4-[2-(4-cyclopropylmethanesulfonylphenyl)acetamido]-N-ethyl-N-(5-methyl-1,2-oxazol-3-yl)benzamide] | ≤ 10 nM
CCCN(C(=O)c1ccc(NC(=O)Cc2ccc(S(=O)(=O)NC3CC3)cc2)cc1)c1cc(C)nn1C [Example 92, 4-{2-[4-(cyclopropylsuIfamoyl)phenyl]acetamido}-N-(1,3-dimethyl-1H-pyrazol-5-yl)-N-propylbenzamide] | ≤ 10 nM
CCN(C(=O)c1ccc(NC(=O)Cc2ccc(S(=O)(=O)CC3CC3)cc2)cc1)c1cc(C)no1 [Example 94, 4-[2-(4-cyclopropylmethanesulfonylphenyl)acetamido]-N-ethyl-N-(3-methyl-1,2-oxazol-5-yl)benzamide] | ≤ 10 nM
CCN(C(=O)c1ccc(NC(=O)Cc2ccc(S(=O)(=O)NC3CC3)cc2)cc1)c1cc(C)no1 [Example 95, 4-{2-[4-(cyclopropylsulfamoyl)phenyl]acetamido}-N-ethyl-N-(3-methyl-1,2-oxazol-5-yl)benzamide] | ≤ 100 nM
CCN(C(=O)c1ccc(NC(=O)Cc2ccc(S(=O)(=O)CC3CC3)cc2)cc1F)c1ccccc1 [Example 99, 4-[2-(4-cyclopropylmethanesulfonylphenyl)acetamido]-N-ethyl-2-fluoro-N-phenylbenzamide] | ≤ 10 nM
CCN(C(=O)c1ccc(NC(=O)Cc2ccc(S(=O)(=O)CC3CC3)cc2)cc1Cl)c1ccccc1 [Example 100, 2-chloro-4-[2-(4-cyclopropylmethanesulfonylphenyl)acetamido]-N-ethyl-N-phenylbenzamide] | ≤ 100 nM
CCN(C(=O)c1ccc(NC(=O)Cc2ccc(S(=O)(=O)CC3CC3)cc2)c(F)c1)c1ccccc1 [Example 102, 4-[2-(4-cyclopropylmethanesulfonylphenyl)acetamido]-N-ethyl-3-fluoro-N-phenylbenzamide] | ≤ 10 nM
CCN(C(=O)c1ccc(NC(=O)Cc2ccc(S(=O)(=O)CC3CC3)cc2)c(C)c1)c1ccccc1 [Example 105, 4-[2-(4-cyclopropylmethanesulfonylphenyl)acetamido]-N-ethyl-3-methyl-N-phenylbenzamide] | ≤ 100 nM
CCN(C(=O)c1ccc(NC(=O)Cc2ccc(S(=O)(=O)CC3CC3)cc2)cc1)c1c(C)noc1C [Example 108, 4-[2-(4-cyclopropylmethanesulfonylphenyl)acetamido]-N-(dimethyl-1,2-oxazol-4-yl)-N-ethyl-benzamide] | ≤ 100 nM
O=C(Cc1ccc(S(=O)(=O)NC2CC2)cc1)Nc1ccc(C(=O)N(CC(F)(F)F)c2ccccc2)cc1 [Example 109, 4-{2-[4-(cyclopropylsulfamoyl)phenyl]acetamido}-N-phenyl-N-(2,2,2-trifluoroethyl) benzamide] | ≤ 10 nM
CCN(C(=O)c1ccc(NC(=O)Cc2ccc(S(=O)(=O)NC3CC3)cc2)cc1)c1c(C)noc1C [Example 110, 4-{2-[4-(cyclopropylsulfamoyl)phenyl]acetamido}-N-(dimethyl-1,2-oxazol-4-yl)-N-ethylbenzamide] | ≤ 1000 nM
CCN(C(=O)c1ccc(NC(=O)Cc2ccc(S(=O)(=O)NC3CC3)cc2)cc1Cl)c1ccccc1 [Example 112, 2-chloro-4-{2-[4-(cyclopropylsulfamoyl)phenyl]acetamido}-N-ethyl-N-phenylbenzamide] | ≤ 1000 nM
O=C(Cc1ccc(S(=O)(=O)CC2CC2)cc1)Nc1ccc(C(=O)N(c2ccccc2)c2ccc(Br)cc2)cc1 [Example 115, N-(4-bromophenyl)-4-[2-(4-cyclopropylmethanesulfonylphenyl)acetamido]-N-phenylbenzamide] | ≤ 100 nM

Results, then the molecule that gave them:

IC50 | Compound
≤ 10 nM | Cc1cc(N(C)C(=O)c2ccc(NC(=O)Cc3ccc(S(=O)(=O)CC4CC4)cc3)cc2)no1 [Example 90, 4-[2-(4-cyclopropylmethanesulfonylphenyl)acetamido]-N-methyl-N-(5-methyl-1,2-oxazol-3-yl)benzamide]
≤ 1000 nM | Cc1cc(N(C)C(=O)c2ccc(NC(=O)Cc3ccc(S(=O)(=O)NC4CC4)cc3)cc2)no1 [Example 91, 4-{2-[4-(cyclopropylsulfamoyl)phenyl]acetamido}-N-methyl-N-(5-methyl-1,2-oxazol-3-yl)benzamide]
≤ 10 nM | CCCN(C(=O)c1ccc(NC(=O)Cc2ccc(S(=O)(=O)NC3CC3)cc2)cc1)c1cc(C)on1 [Example 93, 4-{2-[4-(cyclopropylsulfamoyl)phenyl]acetamido}-N-(5-methyl-1,2-oxazol-3-yl)-N-propylbenzamide]
≤ 100 nM | CCN(C(=O)c1ccc(NC(=O)Cc2ccc(S(=O)(=O)CC3CC3)cc2)cc1)c1nnc(C)s1 [Example 96, 4-[2-(4-cyclopropylmethanesulfonylphenyl)acetamido]-N-ethyl-N-(5-methyl-1,3,4-thiadiazol-2-yl)benzamide]
≤ 1000 nM | CCN(C(=O)c1ccc(NC(=O)Cc2ccc(S(=O)(=O)NC3CC3)cc2)cc1)c1nnc(C)s1 [Example 97, 4-{2-[4-(cyclopropylsulfamoyl)phenyl]acetamido}-N-ethyl-N-(5-methyl-1,3,4-thiadiazol-2-yl)benzamide]
≤ 1000 nM | CCN(C(=O)c1ccc(NC(=O)Cc2ccc(S(=O)(=O)CC3CC3)cc2)c(OC)c1)c1ccccc1 [Example 101, 4-[2-(4-cyclopropylmethanesulfonylphenyl)acetamido]-N-ethyl-3-methoxy-N-phenylbenzamide]
≤ 10 nM | O=C(Cc1ccc(S(=O)(=O)CC2CC2)cc1)Nc1ccc(C(=O)N(CC(F)(F)F)c2ccccc2)cc1 [Example 104, 4-[2-(4-cyclopropylmethanesulfonylphenyl)acetamido]-N-phenyl-N-(2,2,2-trifluoroethyl)benzamide]
≤ 1000 nM | CCN(C(=O)c1ccc(NC(=O)Cc2ccc(S(=O)(=O)NC3CC3)cc2)c(C)c1)c1ccccc1 [Example 106, 4-{2-[4-(cyclopropylsuIfamoyl)phenyl]acetamido}-N-ethyl-3-methyl-N-phenylbenzamide]
≤ 100 nM | CCN(C(=O)c1ccc(NC(=O)Cc2ccc(S(=O)(=O)NC3CC3)cc2)cc1)c1nc(C)c(C)s1 [Example 107, 4-{2-[4-(cyclopropylsulfamoyl)phenyl]acetamido}-N-(4-methyl-5-methyl-1,3-thiazol-2-yl)-N-ethyl-benzamide]
≤ 1000 nM | CCN(C(=O)c1ccc(NC(=O)Cc2ccc(S(=O)(=O)NC3CC3)cc2)cc1F)c1ccccc1 [Example 111, 4-{2-[4-(cyclopropylsulfamoyl)phenyl]acetamido}-N-ethyl-2-fluoro-N-phenylbenzamide]
≤ 10 nM | CC(C)(C)N(Cc1ccccc1)C(=O)c1ccc(NC(=O)Cc2ccc(S(=O)(=O)CC3CC3)cc2)cc1 [Example 113, N-benzyl-N-tert-butyl-4-[2-(4-cyclopropylmethanesulfonylphenyl)acetamido]benzamide]
≤ 100 nM | Cc1ccccc1N(C)C(=O)c1ccc(NC(=O)Cc2ccc(S(=O)(=O)CC3CC3)cc2)cc1F [Example 116, 4-[2-(4-cyclopropylmethanesulfonylphenyl)acetamido]-2-fluoro-N-methyl-N-(2-methylphenyl)benzamide]
≤ 10 nM | Cc1ccccc1N(C)C(=O)c1ccc(NC(=O)Cc2ccc(S(=O)(=O)CC3CC3)cc2)cc1Cl [Example 117, 2-chloro-4-[2-(4-cyclopropylmethanesulfonylphenyl)acetamido]-N-methyl-N-(2-methylphenyl)benzamide]
